According to patent publication US20230107538A1, “CYCLOALKYL-CONTAINING CARBOXYLIC ACIDS AND USES THEREOF” (LIMINAL BIOSCIENCES LIMITED, priority 2019, published 2023):

Assays:
[1] = target: T1, human PPARα ligand binding domain (LBD) (Homo sapiens, UniProt Q07869); assay: Cell-based GAL4 PPAR transactivation assay in HEK293 cells, PPARα; conditions: 24 h
T1 construct: human PPARα (S167-Y468); expressed in transfected cells; host or cells: HEK293
T1 sequence (Q07869 167-468): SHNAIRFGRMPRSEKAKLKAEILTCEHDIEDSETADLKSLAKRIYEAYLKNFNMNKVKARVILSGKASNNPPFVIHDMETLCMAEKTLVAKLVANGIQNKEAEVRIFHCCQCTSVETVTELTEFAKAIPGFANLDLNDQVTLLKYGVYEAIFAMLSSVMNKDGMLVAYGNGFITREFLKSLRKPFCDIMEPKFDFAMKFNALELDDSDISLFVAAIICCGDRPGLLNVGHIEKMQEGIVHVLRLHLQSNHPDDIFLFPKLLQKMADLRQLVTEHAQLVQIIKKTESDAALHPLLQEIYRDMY
Procedure: (§1) The peroxisome proliferator-activated receptors (PPARs), PPARα, PPARδ, and PPARγ are ligand-dependent transcription factors that control expression of several key metabolism-associated genes. The transcriptional activity of representative compounds of formula I to these receptors was assessed using a cell-based GAL4 transactivation assay in HEK293 cells transfected with either PPARα, PPARδ, or PPARγ ligand binding domain (LBD), and was compared to that of the full control agonists GW7647 (PPARα), GW0742 (PPARδ), and rosiglitazone (PPARγ).
(§2) Plasmids: The hinge region and ligand binding domain (LBD) from human PPARα (S167-Y468), PPARδ (S139-Y440) and PPARγ (S176-Y477) were PCR-amplified from a PPARα cDNA clone (cDNA Resource Center, http://www.cdna.org) or from PPARδ1 and PPARγ1 LBD gBlocks™ gene fragments (Integrated DNA Technologies). The PPAR LBD PCR products were inserted in frame with the GAL4 DNA binding domain in the pFN26A(BIND)-hRlu-neo Flexi vector (Promega) at SgfI and PmeI sites to generate GAL4-PPAR-Rluc.
(§3) Cell-based PPAR transactivation assay. HEK293 cells were co-transfected with pGL4.35[luc2P/9XGAL4UAS/Hygro] (Promega) and GAL4-PPAR-Rluc plasmids, and after 24 h of incubation were treated with compounds for 24 h. Luciferase activity was determined with the Dual Glo™ luciferase assay (Promega). Firefly luminescence was normalized to the constitutively expressed Renilla luminescence, and results expressed as fold induction of vehicle control or percentage of reference agonist maximal activity.

[2] = target: T2, human PPARδ ligand binding domain (LBD) (Homo sapiens, UniProt Q03181); assay: Cell-based GAL4 PPAR transactivation assay in HEK293 cells, PPARδ; conditions: 24 h
T2 construct: PPARδ (S139-Y440); host or cells: HEK293
T2 sequence (Q03181 139-441 limits assumed): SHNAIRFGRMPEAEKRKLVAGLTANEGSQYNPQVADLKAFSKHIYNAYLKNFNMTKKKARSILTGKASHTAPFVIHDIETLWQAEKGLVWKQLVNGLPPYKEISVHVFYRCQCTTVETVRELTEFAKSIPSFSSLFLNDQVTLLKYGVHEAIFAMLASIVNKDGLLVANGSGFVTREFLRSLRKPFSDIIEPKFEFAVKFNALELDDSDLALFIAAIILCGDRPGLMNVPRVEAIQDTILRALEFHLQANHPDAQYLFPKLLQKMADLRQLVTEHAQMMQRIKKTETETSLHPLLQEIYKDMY
Procedure: as §1, §2, §3

[3] = target: T3, human PPARγ ligand binding domain (LBD) (Homo sapiens, UniProt P37231); assay: Cell-based GAL4 PPAR transactivation assay in HEK293 cells, PPARγ; conditions: 24 h
T3 construct: PPARγ (S176-Y477); host or cells: HEK293
T3 sequence (P37231 176-477 isoform P37231-2): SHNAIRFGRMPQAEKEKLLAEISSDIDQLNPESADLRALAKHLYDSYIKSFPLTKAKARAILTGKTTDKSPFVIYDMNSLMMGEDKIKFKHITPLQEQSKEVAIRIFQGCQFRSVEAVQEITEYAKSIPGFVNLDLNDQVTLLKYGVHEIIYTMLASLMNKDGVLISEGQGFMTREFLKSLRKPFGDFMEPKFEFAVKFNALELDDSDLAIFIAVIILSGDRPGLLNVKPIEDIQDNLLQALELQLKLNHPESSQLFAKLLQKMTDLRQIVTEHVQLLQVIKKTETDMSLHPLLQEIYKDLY
Procedure: as §1, §2, §3

SMILES | PPARα (GAL4 reporter) % efficacity relative to GW7647 [1] [%] | PPARδ (GAL4 reporter) % efficacity relative to GW0742 [2] [%] | PPARγ (GAL4 reporter) % efficacity relative to rosiglitazone [3] [%] | melting point [°C]
CCCCCCC1CC1C(=O)C(=O)[O-].[Na+] (stereo not shown) | 34 | −3 | 2 | –
[2H]C1([2H])C(CCCCCC)C1CC(=O)[O-].[Na+] (stereo not shown) | 20 | 2 | 3 | –
CC1(C)CC1CCCCC/C=C/C(=O)[O-].[Na+] (stereo not shown) | 10 | 30 | 1 | –
CCCCCCCC1CC1C(=O)[O-].[Na+] (stereo not shown) | 90 | 4 | 16 | –
CC1(C)CC1CCCCC1CC1C(=O)[O-].[Na+] (stereo not shown) | 43 | 5 | 5 | –
CCCCCCC1C(CC(=O)[O-])C1(Br)Br.[Na+] (stereo not shown) [Compound II, Sodium 2-(2,2-dibromo-3-hexylcyclopropyl)acetate] | – | – | – | 108 to 111
CCCCCCC1C(CC(=O)[O-])C1(C)C.[Na+] (stereo not shown) [drawing 322] | 91 | 2 | 8 | –
CCCCCCC1C(CC(=O)[O-])C1(C)C.[Na+] (stereo not shown) [drawing 323] | 33 | −6 | 4 | –
